{"source": "paper PMC7956620", "about": "(Molecules, 2021)", "assay_type_in_all_cases": "cell-based", "conditions_in_all_cases": "100 µM chanoclavine, read-out: Inhibition Percentage (%)", "key": {"[1]": {"target": "T1, 5-HT3A receptor S136A mutant (Homo sapiens, UniProt P46098, S131A)", "T1 construct": "host or cells: Xenopus laevis oocytes injected with in vitro transcribed mRNA", "T1 sequence (P46098 24-478 S131A)": "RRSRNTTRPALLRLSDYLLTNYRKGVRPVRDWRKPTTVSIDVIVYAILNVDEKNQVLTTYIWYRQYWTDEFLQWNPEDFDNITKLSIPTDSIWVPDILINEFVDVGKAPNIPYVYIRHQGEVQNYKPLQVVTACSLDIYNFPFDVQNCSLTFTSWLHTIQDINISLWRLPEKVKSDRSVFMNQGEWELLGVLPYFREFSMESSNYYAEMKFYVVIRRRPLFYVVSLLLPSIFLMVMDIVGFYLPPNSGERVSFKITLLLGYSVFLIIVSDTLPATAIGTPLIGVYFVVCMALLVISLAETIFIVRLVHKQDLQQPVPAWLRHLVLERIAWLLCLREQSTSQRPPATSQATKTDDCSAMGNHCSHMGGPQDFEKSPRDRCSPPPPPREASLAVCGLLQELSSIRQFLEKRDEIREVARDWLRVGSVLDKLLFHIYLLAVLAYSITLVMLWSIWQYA", "test": "two-electrode voltage clamp, S136A mutant receptor in Xenopus oocytes", "description": "(§1) The site-directed mutation of one or two amino acids was performed using sense and antisense primers and Pfu polymerase (QuickChange Site-Directed Mutagenesis Kit; Agilent, Santa Clara, CA, USA) and amplified by polymerase chain reaction (PCR) to increase the target domain. After removing the existing methylated cDNA using Dpn Ⅰ, the PCR products were transformed into Escherichia coli strain DH5α. The cDNA of the 5-HT3A receptor was linearized by Xho Ⅰ at the end of the multi-cloning site, followed by transcription using T7 polymerase and a transcription kit (mMESSAGE mMACHINE T7 Transcription Kit; Thermo Fisher Scientific, Waltham, MA, USA). […]\n(§2) To isolate oocytes, female Xenopus laevis were put into a container filled with ice and left for about one hour. […] When the Xenopus oocytes were ready for injection, 50 ng of mRNA was injected with a nanoliter injector (Drummond Scientific, Vernon Hills, IL, USA). […]\n(§3) The oocytes in which mRNA was expressed during the incubation period allowed for the estimation of channel or receptor properties for observing drug and ligand potential interactions using a two-electrode voltage clamp (OC-725C; Warner Instruments, Hamden, CT, USA) and Digidata (1322A; Molecular Devices, Sunnyvale, CA, USA). […] The voltage and current electrodes were filled with 3 M KCl (0.3–0.7 MΩ) and analyzed at a −80 mV holding potential. […]"}, "[2]": {"target": "T2, 5-HT3A receptor I139A mutant (Homo sapiens, UniProt P46098, I134A/I139A)", "T2 construct": "host or cells: Xenopus laevis oocytes injected with in vitro transcribed mRNA", "T2 sequence (P46098 24-478 I134A/I139A)": "T1 sequence (P46098 24-478 S131A) with A108S, I111A, I116A", "test": "two-electrode voltage clamp, I139A mutant receptor in Xenopus oocytes", "description": "as §1, §2, §3"}, "[3]": {"target": "T3, 5-HT3A receptor Y153A mutant (Homo sapiens, UniProt P46098, Y148A)", "T3 construct": "host or cells: Xenopus laevis oocytes injected with in vitro transcribed mRNA", "T3 sequence (P46098 24-478 Y148A)": "T1 sequence (P46098 24-478 S131A) with A108S, Y125A", "test": "two-electrode voltage clamp, Y153A mutant receptor in Xenopus oocytes", "description": "as §1, §2, §3"}}, "note": "Numbering of substitutions follows the chain as printed.", "data": [{"smiles": "CN[C@@H]1Cc2c[nH]c3cccc(c23)[C@H]1/C=C(\\C)CO", "note": "[chanoclavine]", "values": [{"measurement": "inhibition at 100 µM", "setting": "[1]", "value": "68.4 ± 6.1", "unit": "%"}, {"measurement": "inhibition at 100 µM", "setting": "[2]", "value": "92.8 ± 4.9", "unit": "%"}, {"measurement": "inhibition at 100 µM", "setting": "[3]", "value": "56.9 ± 3.6", "unit": "%"}]}]}
